In PubChem BioAssay (NCI):
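Method: 48-hour compound exposure of cells in 96-well plates, five concentrations, linear interpolation of endpoints. Abbreviation: GI50, concentration required for 50% inhibition of growth. TGI: total growth inhibition.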

What was measured:
Experiment in all cases: NCI anticancer screen, dose series, 48 h
786-0 renal = tested on: 786-0 renal
A498 renal = tested on: A498 renal
A549 NSCLC = tested on: A549 NSCLC
ACHN renal = tested on: ACHN renal
BT-549 breast = tested on: BT-549 breast
CAKI-1 renal = tested on: CAKI-1 renal
CCRF-CEM leukemia = tested on: CCRF-CEM leukemia
COLO 205 colon = tested on: COLO 205 colon
DU-145 prostate = tested on: DU-145 prostate
EKVX NSCLC = tested on: EKVX NSCLC
HCC-2998 colon = tested on: HCC-2998 colon
HCT-116 colon = tested on: HCT-116 colon
HCT-15 colon = tested on: HCT-15 colon
HL-60(TB) leukemia = tested on: HL-60(TB) leukemia
HOP-62 NSCLC = tested on: HOP-62 NSCLC
HOP-92 NSCLC = tested on: HOP-92 NSCLC
HS 578T breast = tested on: HS 578T breast
HT29 colon = tested on: HT29 colon
IGROV1 ovarian = tested on: IGROV1 ovarian
K-562 leukemia = tested on: K-562 leukemia
KM12 colon = tested on: KM12 colon
LOX IMVI melanoma = tested on: LOX IMVI melanoma
M14 melanoma = tested on: M14 melanoma
MCF7 breast = tested on: MCF7 breast
MDA-MB-231 breast = tested on: MDA-MB-231 breast
MDA-MB-435 = tested on: MDA-MB-435
MOLT-4 leukemia = tested on: MOLT-4 leukemia
NCI-H23 lung = tested on: NCI-H23 lung
NCI-H460 lung = tested on: NCI-H460 lung
NCI-H522 lung = tested on: NCI-H522 lung
NCI/ADR-RES ovarian = tested on: NCI/ADR-RES ovarian
OVCAR-3 ovarian = tested on: OVCAR-3 ovarian
OVCAR-5 ovarian = tested on: OVCAR-5 ovarian
OVCAR-8 ovarian = tested on: OVCAR-8 ovarian
PC-3 prostate = tested on: PC-3 prostate
RPMI-8226 leukemia = tested on: RPMI-8226 leukemia
RXF 393 renal = tested on: RXF 393 renal
SF-268 CNS = tested on: SF-268 CNS
SF-295 CNS = tested on: SF-295 CNS
SF-539 CNS = tested on: SF-539 CNS
SK-MEL-2 melanoma = tested on: SK-MEL-2 melanoma
SK-MEL-28 melanoma = tested on: SK-MEL-28 melanoma
SK-MEL-5 melanoma = tested on: SK-MEL-5 melanoma
SK-OV-3 ovarian = tested on: SK-OV-3 ovarian
SN12C renal = tested on: SN12C renal
SNB-19 CNS = tested on: SNB-19 CNS
SNB-75 CNS = tested on: SNB-75 CNS
SR leukemia = tested on: SR leukemia
SW-620 colon = tested on: SW-620 colon
TK-10 renal = tested on: TK-10 renal
U251 CNS = tested on: U251 CNS
UACC-257 melanoma = tested on: UACC-257 melanoma
UACC-62 melanoma = tested on: UACC-62 melanoma
UO-31 renal = tested on: UO-31 renal

Question: With `CCCCCC[C@@H](C)NC(=O)c1ccc(Nc2nc3ccccc3c3occc23)cc1` as the compound, how does the GI50 (786-0 renal) read?
Answer: 2.9 µM

Question: What about the TGI (786-0 renal) of the same compound?
Answer: 26.3 µM

Question: What about the GI50 (A498 renal) of the same compound?
Answer: 2.4 µM

Question: What about the TGI (A498 renal) of the same compound?
Answer: 7.54 µM

Question: And the GI50 (A549 NSCLC)?
Answer: 3.17 µM

Question: What about the TGI (A549 NSCLC) of the same compound?
Answer: > 100 µM

Question: And the GI50 (ACHN renal)?
Answer: 24.8 µM

Question: What about the TGI (ACHN renal) of the same compound?
Answer: 91.7 µM

Question: What about the GI50 (BT-549 breast) of the same compound?
Answer: 2.35 µM

Question: And the TGI (BT-549 breast)?
Answer: 7.61 µM

Question: What about the GI50 (CAKI-1 renal) of the same compound?
Answer: 2.82 µM

Question: And the TGI (CAKI-1 renal)?
Answer: 28.3 µM

Question: What about the GI50 (CCRF-CEM leukemia) of the same compound?
Answer: 3.89 µM

Question: What about the TGI (CCRF-CEM leukemia) of the same compound?
Answer: 15.4 µM

Question: And the GI50 (COLO 205 colon)?
Answer: 3.08 µM

Question: And the GI50 (DU-145 prostate)?
Answer: 1.92 µM

Question: What about the TGI (DU-145 prostate) of the same compound?
Answer: 13.2 µM

Question: What about the GI50 (EKVX NSCLC) of the same compound?
Answer: 1.52 µM

Question: What about the TGI (EKVX NSCLC) of the same compound?
Answer: 5.04 µM

Question: And the GI50 (HCC-2998 colon)?
Answer: 2.51 µM

Question: What about the TGI (HCC-2998 colon) of the same compound?
Answer: 9.16 µM

Question: What about the GI50 (HCT-116 colon) of the same compound?
Answer: 1.92 µM

Question: What about the TGI (HCT-116 colon) of the same compound?
Answer: 11.3 µM

Question: And the GI50 (HCT-15 colon)?
Answer: 8.93 µM

Question: And the TGI (HCT-15 colon)?
Answer: > 100 µM

Question: What about the GI50 (HL-60(TB) leukemia) of the same compound?
Answer: 5.14 µM

Question: And the TGI (HL-60(TB) leukemia)?
Answer: > 100 µM

Question: What about the GI50 (HOP-62 NSCLC) of the same compound?
Answer: 3.28 µM

Question: And the TGI (HOP-62 NSCLC)?
Answer: 27.7 µM

Question: And the GI50 (HOP-92 NSCLC)?
Answer: 1.99 µM

Question: What about the TGI (HOP-92 NSCLC) of the same compound?
Answer: 7.91 µM

Question: What about the GI50 (HS 578T breast) of the same compound?
Answer: 3.79 µM

Question: What about the TGI (HS 578T breast) of the same compound?
Answer: > 100 µM

Question: And the GI50 (HT29 colon)?
Answer: 2.81 µM

Question: And the TGI (HT29 colon)?
Answer: > 100 µM

Question: What about the GI50 (IGROV1 ovarian) of the same compound?
Answer: 1.61 µM

Question: And the TGI (IGROV1 ovarian)?
Answer: 4.54 µM

Question: And the GI50 (K-562 leukemia)?
Answer: 4.82 µM

Question: And the TGI (K-562 leukemia)?
Answer: > 100 µM

Question: And the GI50 (KM12 colon)?
Answer: 38 µM

Question: And the TGI (KM12 colon)?
Answer: > 100 µM

Question: What about the GI50 (LOX IMVI melanoma) of the same compound?
Answer: 19.3 µM

Question: And the TGI (LOX IMVI melanoma)?
Answer: 42.4 µM

Question: What about the GI50 (M14 melanoma) of the same compound?
Answer: 2.23 µM

Question: And the TGI (M14 melanoma)?
Answer: 8.3 µM

Question: And the GI50 (MCF7 breast)?
Answer: 7.58 µM

Question: What about the TGI (MCF7 breast) of the same compound?
Answer: > 100 µM

Question: What about the GI50 (MDA-MB-231 breast) of the same compound?
Answer: 10.2 µM

Question: What about the TGI (MDA-MB-231 breast) of the same compound?
Answer: > 100 µM

Question: What about the GI50 (MDA-MB-435) of the same compound?
Answer: 2.98 µM

Question: What about the TGI (MDA-MB-435) of the same compound?
Answer: > 100 µM

Question: And the GI50 (MOLT-4 leukemia)?
Answer: 3.71 µM

Question: What about the TGI (MOLT-4 leukemia) of the same compound?
Answer: > 100 µM

Question: And the GI50 (NCI-H23 lung)?
Answer: 2.06 µM

Question: And the TGI (NCI-H23 lung)?
Answer: 6.59 µM

Question: And the GI50 (NCI-H460 lung)?
Answer: 3.87 µM

Question: And the TGI (NCI-H460 lung)?
Answer: > 100 µM

Question: And the GI50 (NCI-H522 lung)?
Answer: 1.31 µM

Question: What about the TGI (NCI-H522 lung) of the same compound?
Answer: 4.54 µM

Question: What about the GI50 (NCI/ADR-RES ovarian) of the same compound?
Answer: 2.53 µM

Question: What about the TGI (NCI/ADR-RES ovarian) of the same compound?
Answer: > 100 µM

Question: And the GI50 (OVCAR-3 ovarian)?
Answer: 2.88 µM

Question: And the TGI (OVCAR-3 ovarian)?
Answer: > 100 µM

Question: What about the GI50 (OVCAR-5 ovarian) of the same compound?
Answer: 5.72 µM

Question: What about the TGI (OVCAR-5 ovarian) of the same compound?
Answer: > 100 µM

Question: And the GI50 (OVCAR-8 ovarian)?
Answer: 3.08 µM

Question: And the TGI (OVCAR-8 ovarian)?
Answer: 16.5 µM

Question: And the GI50 (PC-3 prostate)?
Answer: 3.45 µM

Question: What about the TGI (PC-3 prostate) of the same compound?
Answer: > 100 µM

Question: What about the GI50 (RPMI-8226 leukemia) of the same compound?
Answer: 3.75 µM

Question: What about the TGI (RPMI-8226 leukemia) of the same compound?
Answer: > 100 µM

Question: What about the GI50 (RXF 393 renal) of the same compound?
Answer: 3.41 µM

Question: What about the TGI (RXF 393 renal) of the same compound?
Answer: 9.84 µM

Question: And the GI50 (SF-268 CNS)?
Answer: 5.73 µM

Question: And the TGI (SF-268 CNS)?
Answer: > 100 µM

Question: What about the GI50 (SF-295 CNS) of the same compound?
Answer: 4.39 µM

Question: What about the TGI (SF-295 CNS) of the same compound?
Answer: > 100 µM

Question: What about the GI50 (SF-539 CNS) of the same compound?
Answer: 2.07 µM

Question: And the TGI (SF-539 CNS)?
Answer: 5.29 µM

Question: What about the GI50 (SK-MEL-2 melanoma) of the same compound?
Answer: 2.51 µM

Question: What about the TGI (SK-MEL-2 melanoma) of the same compound?
Answer: 7.23 µM

Question: What about the GI50 (SK-MEL-28 melanoma) of the same compound?
Answer: 5.5 µM

Question: What about the TGI (SK-MEL-28 melanoma) of the same compound?
Answer: > 100 µM

Question: What about the GI50 (SK-MEL-5 melanoma) of the same compound?
Answer: 1.66 µM

Question: And the TGI (SK-MEL-5 melanoma)?
Answer: 4.01 µM

Question: What about the GI50 (SK-OV-3 ovarian) of the same compound?
Answer: 4.25 µM

Question: And the TGI (SK-OV-3 ovarian)?
Answer: > 100 µM

Question: What about the GI50 (SN12C renal) of the same compound?
Answer: 40.8 µM

Question: What about the TGI (SN12C renal) of the same compound?
Answer: > 100 µM

Question: What about the GI50 (SNB-19 CNS) of the same compound?
Answer: 5.54 µM

Question: And the TGI (SNB-19 CNS)?
Answer: > 100 µM

Question: What about the GI50 (SNB-75 CNS) of the same compound?
Answer: 2.25 µM

Question: What about the TGI (SNB-75 CNS) of the same compound?
Answer: 6.38 µM

Question: What about the GI50 (SR leukemia) of the same compound?
Answer: 18.9 µM

Question: And the TGI (SR leukemia)?
Answer: 45.5 µM

Question: What about the GI50 (SW-620 colon) of the same compound?
Answer: 3.38 µM

Question: And the TGI (SW-620 colon)?
Answer: > 100 µM

Question: And the GI50 (TK-10 renal)?
Answer: 18.5 µM

Question: And the TGI (TK-10 renal)?
Answer: 70.2 µM

Question: What about the GI50 (U251 CNS) of the same compound?
Answer: 38.8 µM

Question: What about the TGI (U251 CNS) of the same compound?
Answer: > 100 µM

Question: And the GI50 (UACC-257 melanoma)?
Answer: 2.19 µM

Question: And the TGI (UACC-257 melanoma)?
Answer: 5.66 µM

Question: What about the GI50 (UACC-62 melanoma) of the same compound?
Answer: 32.8 µM

Question: What about the TGI (UACC-62 melanoma) of the same compound?
Answer: > 100 µM

Question: And the GI50 (UO-31 renal)?
Answer: 2.87 µM

Question: What about the TGI (UO-31 renal) of the same compound?
Answer: 21 µM
